Source: paper PMC11967820, “Deep Learning Combined with Quantitative Structure‒Activity Relationship Accelerates De Novo Design of Antifungal Peptides” (Advanced Science, 2025)
Read-outs that look alike come from different tables or passages of the source. No end group written: not given here.

Key:
[1] = tested on: human red blood cells (HRBCs); conditions: for MHC5, minimal hemolytic concentration that results in 5% human erythrocyte hemolysis: 2% fresh human red blood cells in saline, 37 °C, 30 min, absorbance 540 nm, mean ± SD, n = 3; for TI, therapeutic index against C. albicans: TI = MHC5/MIC100 (C. albicans)
Method: A 2% fresh human red blood cells (HRBCs) suspension was used in the hemolysis assay of c_AFPs.^[ [48], [50] ^] The c_AFPs solution was prepared in saline with a concentration range of 0–0.5 mg mL^−1. Then, 2% HRBCs suspension was incubated with different concentrations of c_AFPs in a 96‐well plate (37 °C, 30 min). […] Saline was used as a negative control, and Triton X‐100 (1%) was used as a positive control. Each experiment was replicated three times.

[2] = tested on: fluconazole‐resistant C. albicans; conditions: 1 × 10^6 CFU mL^−1, 28 °C, 12 h, then plated on SD agar 37 °C, 16 h
Method: Fluconazole‐resistant C. albicans was prepared following the established methods.^[ [23], [51], [52] ^]

C. albicans [3] = conditions: 0.12 mg kg^−1 intraperitoneally
Method: The systemic C. albicans infection mouse model was established following the reported reference.^[ [22] ^] Cyclophosphamide (150 mg kg^−1 d^−1) was first injected intraperitoneally for 3 days to disrupt the immunity of female Kunming mice (Experimental Animal Center of Zhengzhou University, SCXK Yu 2021–0009). […] The injections were given once every 24 h during the first week and once every 48 h during the second week. Survival rates and body weights of the mice in each group were recorded during treatment. At 0, 7, and 14 d of treatment, duplicate samples (n = 3) of the spleen and thymus were collected from each group to determine the immune organ index.^[ [54] ^] The ratio of organ weight to body weight was adopted to describe the immune organ index. At 14 d of treatment, liver, lung, kidney, and spleen tissues were collected from each group of mice and immersed in 4% paraformaldehyde fixative. Subsequently, the tissue samples were embedded in paraffin, followed by sectioned and stained with hematoxylin‐eosin (H&E). Finally, optical microscopy was used to observe the pathological changes in the organ tissues of the mice.

C. albicans [4] = test: Resistance induction by continuous passaging culture; assay type: cell-based, Candida albicans; conditions: for change of MIC on continuous passaging: SD broth, 24 h per generation, 28 °C
Method: The resistance tendency of c_AFPs developed in C. albicans was assessed utilizing a continuous passaging culture.^[ [23], [51] ^] […] Subsequently, 20 µL of culture was transferred to a fresh SD broth with the same concentration of c_AFPs/antibiotic. The concentrations of c_AFPs/antibiotic in the SD broth were doubled every 10 generations, and the MICs of the c_AFPs/antibiotic were detected every 5 generations. Each 24‐hour incubation was considered one generation. PBS (pH 6.0) was used as a blank control, and fluconazole was used as an antibiotic control. Each experiment was performed three times.

[5] = Day 7, fluconazole group, n = 3

| Molecule | MHC5, minimal hemolytic concentration that results in 5% human erythrocyte hemolysis [1] [µg/mL] | TI, therapeutic index against C. albicans [1] | minimum fungicidal concentration (MFC) against fluconazole‐resistant C. albicans [2] [× MIC] | splenic index (C. albicans [3]; [5]) [mg/g] | thymic index (C. albicans [3]; [5]) [mg/g] | thymic index (C. albicans [3]; Day 14, fluconazole group, n = 3) [mg/g] | average increased weight after 14 days of treatment (C. albicans [3]; fluconazole group, n = 10) [g] | change of MIC on continuous passaging (C. albicans [4]; 25th generation) | change of MIC on continuous passaging (C. albicans [4]; 40th generation) | MIC (C. albicans [4]; Candida albicans, read-out: MIC of fluconazole against C. albicans) [µg/mL] | change of MIC on continuous passaging (C. albicans [4]; first 20 generations, 0.5 × MIC doubled every 10 generations) |
| --- | --- | --- | --- | --- | --- | --- | --- | --- | --- | --- | --- |
| RLWRIVVIRRAR-NH2 [AFP‐8] | 41.81 ± 1.88 | 5.45 | 4 |  |  |  |  |  |  |  |  |
| RLWRIVLIRKAR-NH2 [AFP‐11] | 46.51 ± 2.24 | 6.22 | 8 |  |  |  |  |  |  |  |  |
| OC(Cn1cncn1)(Cn1cncn1)c1ccc(F)cc1F [fluconazole] |  |  | > 50 | 9.89 | 2.45 | 5.16 | 8.16 | increased twofold | eightfold | 1.9 | remained unchanged |
| RLWRIVLIRRAK-NH2 [AFP‐10] | 48.11 ± 1.54 | 13.71 | 2 |  |  |  |  |  |  |  |  |
| VRWRIRLIRKLA-NH2 [AFP‐13] | 99.50 ± 3.28 | 15.89 | 2 |  |  |  |  |  |  |  |  |
